Results taken from patent publication US12215133B2 (BrightGene Bio-Medical Technology Co., Ltd., priority 2021, dated 2025).

Biological target: T1, GIP receptor (Homo sapiens, UniProt P48546)
T1 construct: expressed in transfected cells; host or cells: CHO cell line
T1 sequence (P48546 22-466): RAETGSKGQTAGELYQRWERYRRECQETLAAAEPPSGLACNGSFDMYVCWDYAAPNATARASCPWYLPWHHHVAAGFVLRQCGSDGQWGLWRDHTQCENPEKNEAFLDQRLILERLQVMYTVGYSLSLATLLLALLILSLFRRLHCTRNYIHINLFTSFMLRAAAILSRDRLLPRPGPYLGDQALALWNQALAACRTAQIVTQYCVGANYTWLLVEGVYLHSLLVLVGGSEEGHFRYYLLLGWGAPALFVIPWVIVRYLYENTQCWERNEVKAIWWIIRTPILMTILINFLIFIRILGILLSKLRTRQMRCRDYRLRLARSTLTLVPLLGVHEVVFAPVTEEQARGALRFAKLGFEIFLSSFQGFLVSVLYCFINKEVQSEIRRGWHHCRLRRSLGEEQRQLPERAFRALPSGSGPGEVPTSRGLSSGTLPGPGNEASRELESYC
Assay: cAMP experiment, GIP receptor (CHO host cell line)
Type: cell-based
Conditions: CHO host cells

## CNC(CCCCNC(=O)COCCOCCOCCNC(=O)COCCOCCOCCNC(=O)CCC(NC(=O)CC(=O)O)C(=O)O)C(N)=O (stereo not shown) [BG128]
  EC50: 278 pM
